Measurements reported in patent US7572439B2, “Enzyme disruption of bacterial biofilms” (priority 2002, dated 2009).
Marks after values point to notes of the source that are not given here.

Columns and labels:
S. epidermidis biofilms = experiment: Disruption of S. epidermidis biofilms on glass chamber slide; assay type: cell-based; parameters: dose or concentration left out as unconfirmed
From the text: Three S. epidermidis strains with various capacities for glycocalyx (slime) production were examined including, S. epidermidis strain Hay (a low slime producer), S. epidermidis strain SEI 175 (a moderate slime producer) and S. epidermidis ATCC 35984 (a high slime producer). All three of these S. epidermidis strains produced biofilms on a glass chamber slide (FIG. 9) with ATCC 35984 producing the thickest and most darkly staining biofilm as expected. […] S. aureus strain SA113 was included in this experiment as a control. […] The stained material visible in lysostaphin treated wells is extracellular glycocalyx which stained pink by safranin and contained no intact gram positive S. epidermidis cells, only cellular debris.

S. aureus [1] = experiment: Killing of bacteria in lysostaphin-coated Angiocath catheters; assay type: cell-based
Protocol: Two Angiocath catheters (Becton Dickinson) were incubated with 200 PI of a 100 μg/mL solution of lysostaphin, while two others were incubated in PBS. The catheters were allowed to incubate overnight at 4° C. The following morning the catheters were washed with 50 ml PBS using a pump with a flow rate of 1.5 ml/minute. Once the catheters were washed, S. aureus SA5 was diluted in PBS to a percent transmittance of 40. A 1:10,000 dilution of this solution was made, and 100 μl was added to each catheter. The catheters were allowed to incubate for two hours at 37° C. Following incubation, the catheter effluent was plated onto blood agar plates and put in the incubator overnight at 37° C. The colonies on the plates were counted the following morning.
Coating of Catheters. The needles from the AngioCath catheters were removed and disposed. Using a 1 ml syringe, the catheters were coated with 200 μl of a 0.1 mg/ml solution of lysostaphin. The catheters were incubated for 1 hour, unless otherwise specified, at room temperature. The catheters were then washed with 50 ml of phosphate buffered saline using a peristaltic pump with a flow rate of 1.5 ml/minute. The catheters were then inoculated with 120 μl of a ˜5×10^4 CFU/ml solution of bacteria (diluted in TSB) and incubated for 2 hours at 37° C. The catheter effluent was then streaked onto a blood agar plate and incubated overnight at 37° C.

S. aureus [2] = experiment: Pre-treatment of catheterized mice with lysostaphin before S. aureus challenge; assay type: in vivo; settings: for CFUs catheter / CFUs heart / CFUs liver: rinsed; for Animals infected: rinsed after 22 hours, 10^4 S. aureus, 4 days
Protocol: Jugular vein catheterized mice were pretreated with one or two doses of lysostaphin via catheter prior to being challenged with S. aureus as in Example 4. The mice received either one dose of lysostaphin (40 mg/kg) 24 hours pre-challenge or two doses of lysostaphin (40 mg/kg) 24 hours and 2 hours pre-challenge. Lysostaphin solutions were left in the catheters during challenge. Control mice received standard Phosphate Buffered Saline (PBS). The mice were sacrificed four days post-challenge.
In the above example, the lysostaphin solution was left in the catheters at the time of bacterial challenge, so it could be argued that this lysostaphin in solution was protecting the catheters from S. aureus infection. In order to perform a more rigorous experiment, Catheterized mice were instilled with a single dose of 40 mg/kg lysostaphin in 200 ul PBS through the catheter. One group also received a subsequent 50 ul of lock solution containing the same concentration of lysostaphin as the pre-instillation dose. Twenty two hours later, the catheters of all of these mice were rinsed thoroughly with PBS. Two hours post-rinsing, the animals were challenged with 10^4 S. aureus. The animals were sacrificed 4 days post S. aureus challenge and the catheters and organs processed for bacteria.

SA5 [3] = experiment: Leaching of lysostaphin off coated surfaces; assay type: cell-based, S. aureus
Protocol: Leaching of Lysostaphin. To test whether lysostaphin was slowly being released from the catheter into the lumen solution, lysostaphin coated catheters were incubated with 100 μl PBS for 2 hours at 37° C. The PBS was then transferred into an Eppendorf tube and 10^5 CFU of SA5 was added to the effluent and incubated for 1 hour at 37° C. 40 μl from the samples were streaked onto blood agar plates and incubated overnight at 37° C. Alternatively, lysostaphin coated catheters were incubated with PBS overnight at 37° C. The following morning the PBS was washed out and the catheters were inoculated with ˜5×10^4 CFU/ml SA5 for 2 hours at 37° C. The effluent was then streaked onto blood agar plates and incubated at 37° C. overnight. To look for leaching off the polystyrene surface, the wells were coated with 10, 1 and 0.1 mg/ml lysostaphin for 60 minutes. The wells were then washed, and 300 μl of PBS was added to the wells for 2 hours and then removed 300 μl of a 5×10^4 CFU/ml solution of SA5 was added to the PBS wash and allowed to incubate for one hour at 37° C. 40 μl was then removed and streaked onto a blood agar plate and incubated overnight at 37° C.

SA5 [4] = experiment: Long-term leaching of lysostaphin from coated catheters; assay type: cell-based, S. aureus
Protocol: Long-term Leaching of Lysostaphin. Ten lysostaphin-coated catheters (10 mg/ml coating concentration) were incubated with PBS for 2 hours at 37° C. The catheters were then washed and two of the ten lysostaphin coated catheters were incubated with 200 μl of a 5×10^4 CFU/ml solution of SA5 for 2 hours at 37° C. The effluent was streaked on to blood agar plates and incubated at 37° C. overnight. The rest of the catheters were incubated with fresh PBS and left at 37° C. overnight. The following day, all eight catheters were washed out and two of the catheters were incubated with bacteria as above. The other six catheters were again incubated with fresh PBS and left at 37° C. overnight. This procedure was repeated everyday for four days.

S. aureus [5] = experiment: Lysostaphin activity on catheters in presence of serum proteins; assay type: cell-based
[6] = 40 mg/kg i.c., no lock, results from the one infected animal

lysostaphin
intact bacteria on surface after treatment (microscopic examination) (S. epidermidis biofilms; three hours (data not shown)): no intact bacteria left
disruption of S. epidermidis biofilms (safranin) (S. epidermidis biofilms; three hours, strains Hay, SE1175, ATCC 35984): disrupted the biofilms of all three strains
CFU (S. aureus [1]; Angiocath, coating 100 μg/ml overnight 4° C., SA5 two hours 37° C.): 0 CFU
CFU (n = 2) (S. aureus [1]; Table 13, AngioCath, coating concentration 0.1 mg/ml): 0 CFU
CFU (n = 2) (S. aureus [1]; catheter coating 0.1 mg/ml, MRSA (MBT5040)): 1 CFU
CFU (n = 2) (S. aureus [1]; catheter coating 0.1 mg/ml, SA5): 1 CFU
CFU (n = 2) (S. aureus [1]; catheter coating 0.1 mg/ml, SA8): 0 CFU
reduction of bacterial counts (S. aureus [1]; catheters coated 5 minutes with 0.1 mg/ml): 98.7%
reduction of bacterial counts (S. aureus [1]; catheters coated 10 minutes with 0.1 mg/ml): 99.4%
reduction of bacterial counts (S. aureus [1]; catheters coated 15 minutes with 0.1 mg/ml): completely cleared
clearing of bacteria from coated catheters (S. aureus [1]; catheters incubated with SA8): completely cleared
CFU recovered from the catheters, on average (S. aureus [1]; coated catheters incubated with MRSA (MBT5040)): 1 CFU
clearing of bacteria from coated catheters (S. aureus [1]; vs 493 CFU's from control catheters): completely cleared of bacteria
CFUs catheter (S. aureus [2]; 40 mg/kg i.c. and lock): 0 CFUs
CFUs heart (S. aureus [2]; 40 mg/kg i.c. and lock): 0 CFUs
CFUs liver (S. aureus [2]; 40 mg/kg i.c. and lock): 0 CFUs
Animals infected (S. aureus [2]; 40 mg/kg i.c. and lock): 0/4
CFUs catheter (S. aureus [2]; 40 mg/kg i.c., no lock): 0 CFUs
Animals infected (S. aureus [2]; 40 mg/kg i.c., no lock): 1/4
CFUs heart (S. aureus [2]; [6]): (287)^a CFUs
CFUs liver (S. aureus [2]; [6]): (341)^a CFUs
infection status of pretreated mice (S. aureus [2]; 40 mg/kg via catheter 24 hours or 24 hours and 2 hours pre-challenge, solution left in catheters, four days post-challenge): All eight treated mice were S. aureus free
protection of catheters from formation of S. aureus biofilms (S. aureus [2]; single dose of 40 mg/kg pre-instilled, excess rinsed out): will protect the catheters from formation of S. aureus biofilms
CFU (n = 3) (SA5 [3]; Angiocath, coating 0.1 mg/ml, saline incubation 2 hr, bacteria added to PBS wash): 219 CFU
CFU (n = 3) (SA5 [3]; Angiocath, coating 0.1 mg/ml, saline incubation 24 hr, bacteria added to catheter): 0 CFU
CFU (n = 3) (SA5 [3]; Polystyrene, coating 0.1 mg/m, saline incubation 2 hr, killing in wash): 291 CFU
CFU (n = 3) (SA5 [3]; Polystyrene, coating 1 mg/ml, saline incubation 2 hr, killing in wash): 33 CFU
CFU (n = 3) (SA5 [3]; Polystyrene, coating 10 mg/ml, saline incubation 2 hr, killing in wash): 26 CFU
reduction in bacterial counts by PBS wash from coated catheters (SA5 [3]; bacteria added to PBS wash): only minimal reduction in bacterial counts
log reduction in bacterial counts due to leaching (SA5 [3]; polystyrene, 0.1 mg/ml coating, PBS wash): 0.33 log
log reduction of SA5 titers by wash compared to control (SA5 [3]; polystyrene, 1 mg/ml coating, PBS wash): 1.3 log
log reduction of SA5 titers by wash compared to control (SA5 [3]; polystyrene, 10 mg/ml coating, PBS wash): 1.4 log
clearing of bacteria by coated catheters after overnight wash with PBS (SA5 [3]; vs 1500 CFU's from untreated catheters): complete clearing of bacteria
log reduction in bacteria recovered vs uncoated catheters (SA5 [4]; 10 mg/ml coated catheters, two-hour incubation with PBS): 2.8 log
log reduction in bacterial counts (SA5 [4]; PBS incubation 24 hours): 1.8 log
log reduction in bacterial counts (SA5 [4]; PBS incubation 48 hours): 1.5 log
log reduction in bacterial counts (SA5 [4]; PBS incubation 72 hours): 0.7 log
log reduction in bacterial counts (SA5 [4]; PBS incubation 96 hours): 0.3 log
reduction in bacterial counts (S. aureus [5]; 0.1 mg/ml coated catheters incubated with human serum 24 hours): 99%
clearing of bacteria (S. aureus [5]; 10 and 1 mg/ml coated catheters incubated with human serum): completely cleared the bacteria
